From patent US11072637B2, “Walnut oligopeptide powder, preparation method and application thereof” (Sinphar Tian-Li (Hangzhou) Pharmacy Company Limited, priority 2016, dated 2021)

Experiments:
H2O2 induced PC12 cell = assay: Protection of PC12 cells against hydrogen peroxide damage (MTT); assay type: cell-based; details: 80 μg/ml, 6 hours pre-culture, then 100 μM H2O2 12 hours; model group 57.2
Procedure: PC12 nerve cell protection model: This is a good model for studying nerve cell physiology, pathology and pharmacology, and also a most common in-vitro drug screening model for studying Parkinson's disease and neuro-fatigue.
PC12 cells were cultured by using a high-sugar DMEM culture medium containing 10% fetal calf serum, and digesting for about 50 seconds by using 0.25% of pancreatin during cell passage, stopping digestion by using a DMEM culture medium containing 10% serum, and adding fresh culture medium to blow the cells uniformly. Cell density passage of 10^5/ml was carried out. 4 ml of culture solution containing cells was added to each bottle of cells, culturing under the conditions of 37° C. and 5% CO2. […]
The 96-well plate was respectively given to 100 μL of the walnut oligopeptide by a certain concentration gradient in each hole, after culturing for 24 hours, the cell vitality was detected by MTT method. […] The cell activity of the model group and the drug delivery group was calculated by taking the average value of the OD value of the control group as 100% of the cell activity. […]
The above groups were cultured under the same conditions, and then subsequent experiments were carried out. The cell activity was detected by MTT method in 96-well plates.

[1] = DPPH free radical scavenging experiment; assay type: biochemical; details: 100 μg/mL
Procedure: 1. DPPH Free Radical Scavenging Experiment: 1.1 Preparation of DPPH ethanol solution: precisely weighing 4 mg of […], putting into a 100 ml brown volumetric flask, and adding 50 ml of ethanol, the ultrasonic treatment was carried out for 30 seconds, ethanol was used for fixing the volume to scale, shaking, and the product needs to be freshly prepared when needed. 1.2 Preparation of test solution: precisely weighing 10 mg of walnut oligopeptide powder, and putting into a 50 ml brown volumetric flask, adding 30 ml of ethanol, carrying out ultrasonic treatment for 5 minutes, diluting with ethyl alcohol for fixing the volume to scale, and shaking. […]

[2] = ABTS+ free radical scavenging experiment; assay type: biochemical; details: 100 μg/mL
Procedure: 2. ABTS^+ Free Radical Scavenging Experiment: 2.1 Preparation of PBS buffer solution: weighing 8 g of sodium chloride, 0.2 g of potassium chloride, 0.24 g of monopotassium phosphate, and 3.62 g of disodium hydrogen phosphate dodecahydrate and putting them into a 1000 ml beaker, adding 800 ml of distilled water, stirring to dissolve, and adjusting the pH value to 7.4 by using hydrochloric acid or sodium hydroxide, transferring into a 1000 ml volumetric flask, adding distilled water to dilute, shaking evenly, and standing for later use. […] 2.5 Operation steps: accurately sucking 0.5 ml of test solution and 5 ml of ABTS working solution, and mixing uniformly; accurately sucking 0.5 ml of test solution and 5 ml of PBS buffer solution, and mixing uniformly; accurately sucking 5 ml of ABTS working solution and 0.5 ml of PBS buffer solution, and mixing uniformly, the absorbance was measured immediately at 734 nm, and the free radical removal rate was calculated according to the following formula: IR%=[1−(Ai−Aj)/A0]*100%; in which, Ai represents the absorbance of the mixture of the test solution and ABTS, Aj represents the absorbance of the mixture of the test solution and solvent, and A0 represents the absorbance of the mixture of ABTS and solvent. […]

[3] = SRSA superoxide anion free radical scavenging experiment; assay type: biochemical; details: 100 μg/mL
Procedure: 3. SRSA Superoxide Anion Free Radical Scavenging Experiment: 3.1 Preparation of 0.1 moL/L PBS buffer solution (pH 7.4): 80 g of sodium chloride, 2 g of potassium chloride, 2.4 g of monopotassium phosphate and 23.1 g of dipotassium hydrogen phosphate trihydrate were weighted and placed in 1000 ml beaker, adding 600 ml of distilled water, stirring to dissolve, and adjusting the pH to […] with hydrochloric acid or sodium hydroxide, transferring into 1000 ml volumetric flask, adding distilled water to dilute to the scale, shaking evenly, and standing for later use. […] 3.7 Operation steps: accurately sucking 0.5 ml of test solution and 5 ml of the working solution, and uniformly mixing; accurately sucking 0.5 ml of test solution and 5 ml of distilled water, and uniformly mixing; accurately sucking 5 ml of the working solution and 0.5 ml of distilled water, and uniformly mixing, the absorbance was determined immediately at 560 nm, and the free radical scavenging rate was calculated according to the following formula: IR%=[1−(Ai−Aj)/A0]*100%; in which, Ai represents the absorbance of the mixture of the test solution and […], Aj represents the absorbance of the mixture of the test solution and the solvent; and A0 represents the absorbance of the mixture of SRSA and solvent. […]

SMILES | Cell activity(%) (H2O2 induced PC12 cell) | DPPH scavenging rate % [1] [%] | ABTS^+ scavenging rate % [2] [%] | SRSA scavenging rate % [3] [%]
CC(=O)N[C@@H](CS)C(=O)O [Positive group, NAC] | 88.0 | – | – | –
O=C1O[C@H]([C@@H](O)CO)C(O)=C1O [Vitamin C] | – | 97.2 | 98.1 | 80.1
